Experiments:
FM-MEL-2 [1] = details: 72 h
Protocol: (§1)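 Validation dose-response testing of selected drugs on NRAS-mutant melanoma patient-derived cells, run in 2D culture and in 3D spheroids (ultra-low attachment plates), in triplicate per concentration. Viability was read by CellTiter-Glo after 72 h. EC50 came from Breeze curve fitting, and DSS was calculated from the curve.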

FM-MEL-3 [2] = details: 72 h
Protocol: as §1

FM-MEL-6 [3] = details: 72 h
Protocol: as §1

Bowes = assay: drug sensitivity score (DSS) (DSS (unitless, 0-50 scale)); higher = more sensitive (stronger viability inhibition); extreme values may be limits of the assay; details: 72 h; culture: 2D
Method in brief: (§2)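 Melanoma cell lines and patient-derived melanoma cultures at 1000–1500 cells per well were exposed in 2D, in 384-well plates, to a 527-compound oncology library at five concentrations spanning a 10,000-fold range for 72 h at 37 °C. CellTiter-Glo luminescence then measured viability. From dose-response curves fitted in the in-house Breeze software, a drug sensitivity score, a modified area-under-curve measure, was obtained.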

WM165 = assay: as above; details: 72 h; culture: 2D
Method in brief: as §2

FM-MEL-2 [4] = assay: as above; details: 72 h; culture: 2D
Method in brief: as §2

FM-MEL-3 [5] = assay: as above; details: 72 h; culture: 2D
Method in brief: as §2

SK-MEL-2 = assay: as above; details: 72 h; culture: 2D
Method in brief: as §2

SK-MEL-28 = assay: as above; details: 72 h; culture: 2D
Method in brief: as §2

WM852 = assay: as above; details: 72 h; culture: 2D
Method in brief: as §2

FM-MEL-6 [6] = assay: as above; details: 72 h; culture: 2D
Method in brief: as §2

FM-MEL-2 [7] = assay: drug sensitivity score (DSS) (DSS (unitless)); higher = more sensitive; details: 72 h
Protocol: as §1

FM-MEL-3 [8] = assay: as above; details: 72 h
Protocol: as §1

FM-MEL-6 [9] = assay: as above; details: 72 h
Protocol: as §1

Compound | EC50 (cell viability) (FM-MEL-2 [1]; culture: 2D) [nM] | EC50 (cell viability) (FM-MEL-2 [1]; culture: 3D spheroid) [nM] | EC50 (cell viability) (FM-MEL-3 [2]; culture: 2D) [nM] | EC50 (cell viability) (FM-MEL-3 [2]; culture: 3D spheroid) [nM] | EC50 (cell viability) (FM-MEL-6 [3]; culture: 2D) [nM] | EC50 (cell viability) (FM-MEL-6 [3]; culture: 3D spheroid) [nM] | drug sensitivity score (Bowes) | drug sensitivity score (WM165) | drug sensitivity score (FM-MEL-2 [4]) | drug sensitivity score (FM-MEL-3 [5]) | drug sensitivity score (SK-MEL-2) | drug sensitivity score (SK-MEL-28) | drug sensitivity score (WM852) | drug sensitivity score (FM-MEL-6 [6]) | drug sensitivity score (FM-MEL-2 [7]; culture: 2D) | drug sensitivity score (FM-MEL-2 [7]; culture: 3D spheroid) | drug sensitivity score (FM-MEL-3 [8]; culture: 2D) | drug sensitivity score (FM-MEL-3 [8]; culture: 3D spheroid) | drug sensitivity score (FM-MEL-6 [9]; culture: 2D) | drug sensitivity score (FM-MEL-6 [9]; culture: 3D spheroid)
CNc1ncc2cc(-c3cc(NC(=O)NCCC(C)(C)C)c(F)cc3C)c(C)nc2n1 | 59.3 | 59.8 | 83.3 | 64.9 | 187 | 97.3 | 7.4 | 25.4 | 19.9 | 25.4 | 15.2 | 20.3 | 10.2 | 14.4 | 20.6 | 20.8 | 24.5 | 26.6 | 11.3 | 16.9
O=C(Nc1ccc2[nH]nc(-c3ccncc3)c2c1)[C@@H]1CCN(CC(=O)N2CCN(c3ccc(-c4ncccn4)cc3)CC2)C1 | 206 | 54.5 | 97.1 | 69 | 210 | 120 | 1.3 | 21.2 | 20.8 | 22.8 | 15.6 | 21.8 | 8.2 | 12.7 | 17.7 | 25 | 22.5 | 26.2 | 11.2 | 17.2
C=CCn1c(=O)c2cnc(Nc3ccc(N4CCN(C)CC4)cc3)nc2n1-c1cccc(C(C)(C)O)n1 [AZD1775] | 378 | 364 | 242 | 257 | 1800 | > 10000 | 15.2 | 13.1 | 7.6 | 12.8 | 11.3 | 4.3 | 14.5 | 12.5 | 5.8 | 4.5 | 14 | 15.6 | 1.7 | 0
COc1ccc(-c2ccc3c(N4CCOC[C@@H]4C)nc(N4CCOC[C@@H]4C)nc3n2)cc1CO [AZD8055] | 60.6 | 54.1 | 72.8 | 50.7 | 94.2 | 66.2 | 20.1 | 21.7 | 15.6 | 14.2 | 13.9 | 16.4 | 15 | 17.3 | 18.2 | 18.1 | 20.3 | 26.2 | 11.3 | 13.4
Cn1cnc2c(F)c(Nc3ccc(Br)cc3F)c(C(=O)NOCCO)cc21 [Binimetinib] | 40.3 | 28.8 | 7.2 | 10.1 | 34.3 | 15.7 | 0 | 9.5 | 8.7 | 13.7 | 6.3 | 8.8 | 0.4 | 7.7 | 11 | 12.9 | 19.5 | 21.1 | 9.4 | 15.7
O=C(c1ccc(F)c(F)c1Nc1ccc(I)cc1F)N1CC(O)([C@@H]2CCCCN2)C1 [Cobimetinib] | 5.7 | 4 | 12.5 | 6.2 | 28.1 | 8.1 | 0.3 | 21.3 | 15.5 | 20.7 | 11.5 | 21.3 | 4.3 | 9.4 | 20.2 | 21.8 | 20.7 | 26.6 | 10.4 | 19.5
Cn1c(=O)n(-c2ccc(C(C)(C)C#N)cc2)c2c3cc(-c4cnc5ccccc5c4)ccc3ncc21 [Dactolisib] | 15.2 | 12.1 | 22.6 | 7.4 | 26.9 | 13.1 | 12.8 | 17.6 | 12.5 | 15.1 | 9.9 | 13.5 | 10.7 | 15.1 | 13.5 | 14.6 | 13.7 | 22.9 | 7.4 | 10.1
CC(C)NC(=O)COc1cccc(-c2nc(Nc3ccc4[nH]ncc4c3)c3ccccc3n2)c1 [KD025] | 55.7 | 42.8 | > 5000 | 440 | > 5000 | > 5000 | 2.6 | 5.4 | 18.9 | 13 | 0 | 1.6 | 7.5 | 3 | 21.7 | 24.2 | 0 | 4.5 | 0 | 0
